Key:
[1] = molecular target: S. aureus Alpha hemolysin (Staphylococcus aureus, UniProt P09616); experiment: cell-based; conditions: A549-LDH Assay activity
[2] = molecular target: hemolysin alpha from Staphylococcus aureus (Staphylococcus aureus, UniProt P09616); experiment: cell-based
Chain of hemolysin alpha from Staphylococcus aureus (P09616 27-319 limits assumed): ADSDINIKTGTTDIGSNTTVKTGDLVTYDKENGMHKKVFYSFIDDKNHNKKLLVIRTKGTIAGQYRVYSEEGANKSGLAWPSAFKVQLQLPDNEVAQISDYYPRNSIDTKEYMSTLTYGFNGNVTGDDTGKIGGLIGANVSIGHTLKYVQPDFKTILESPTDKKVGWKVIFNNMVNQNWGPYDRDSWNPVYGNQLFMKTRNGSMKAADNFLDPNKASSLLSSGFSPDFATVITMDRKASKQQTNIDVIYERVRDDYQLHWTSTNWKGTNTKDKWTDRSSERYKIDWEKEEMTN

Chain of S. aureus Alpha hemolysin (P09616 27-319 limits assumed): as above

| SMILES | EC50 [1] [nM] | IC50 [2] [nM] | EC50 [2] [nM] |
| --- | --- | --- | --- |
| Cc1ccccc1-c1ccc(NS(=O)(=O)c2cc3[nH]c(=O)c(=O)[nH]c3cc2C)cc1 [Compound 89, 7-methyl-N-(2′-methyl-[1,1′-biphenyl]-4-yl)-2,3-dioxo-1,2,3,4-tetrahydroquinoxaline-6-sulfonamide] | 100 to 1000 | 100 to 1000 | – |
| O=c1[nH]c2cc(F)c(S(=O)(=O)Nc3ccc(-c4cccc(N5CCCC5)c4)c(Cl)c3)cc2[nH]c1=O [Compound 27, N-(2-chloro-3′-(pyrrolidin-1-yl)-[1,1′-biphenyl]-4-yl)-7-fluoro-2,3-dioxo-1,2,3,4-tetrahydroquinoxaline-6-sulfonamide] | 1000 to 6000 | < 30 | – |
| Cc1cc2[nH]c(=O)c(=O)[nH]c2cc1S(=O)(=O)Nc1ccc(-c2cccc(N)c2)c(Cl)c1 [Compound 311, N-(3′-amino-2-chloro-[1,1′-biphenyl]-4-yl)-7-methyl-2,3-dioxo-1,2,3,4-tetrahydroquinoxaline-6-sulfonamide] | < 30 | – | 30 to 100 |
| Cc1cc2[nH]c(=O)c(=O)[nH]c2cc1S(=O)(=O)Nc1ccc(-c2ccc(OC(F)(F)F)cc2)c(Cl)c1 [Compound 277, N-[3-chloro-4-[4-(trifluoromethoxy)phenyl]phenyl]-7-methyl-2,3-dioxo-1,4-dihydroquinoxaline-6-sulfonamide] | 100 to 1000 | – | 100 to 1000 |
| COc1ccc(-c2ccc(NS(=O)(=O)c3cc4[nH]c(=O)c(=O)[nH]c4cc3C)cc2Cl)cc1F [Compound 320, N-[3-chloro-4-(3-fluoro-4-methoxy-phenyl)phenyl]-7-methyl-2,3-dioxo-1,4-dihydroquinoxaline-6-sulfonamide] | < 30 | – | < 30 |
| Cc1cc2ccc(-c3ccc(NS(=O)(=O)c4cc5[nH]c(=O)c(=O)[nH]c5cc4C)cc3C(F)(F)F)cc2[nH]1 [Compound 364, 7-methyl-N-[4-(2-methyl-1H-indol-6-yl)-3-(trifluoromethyl)phenyl]-2,3-dioxo-1,4-dihydroquinoxaline-6-sulfonamide] | < 30 | – | < 30 |
| COc1cc2[nH]c(=O)c(=O)[nH]c2cc1S(=O)(=O)Nc1ccc(C(F)(F)F)cc1 [Compound 400, 7-methoxy-2,3-dioxo-N-[4-(trifluoromethyl)phenyl]-1,4-dihydroquinoxaline-6-sulfonamide] | 100 to 1000 | – | 1000 to 3500 |
| Cc1cc2[nH]c(=O)c(=O)[nH]c2cc1S(=O)(=O)Nc1cnc(-c2ccc(C#N)cc2)c(Cl)c1 [Compound 305, N-[5-chloro-6-(4-cyanophenyl)-3-pyridyl]-7-methyl-2,3-dioxo-1,4-dihydroquinoxaline-6-sulfonamide] | 30 to 100 | – | 100 to 1000 |
| COc1cc(NS(=O)(=O)c2cc3[nH]c(=O)c(=O)[nH]c3cc2C)ccc1-c1ccccc1 [Compound 81, N-(2-methoxy-[1,1′-biphenyl]-4-yl)-7-methyl-2,3-dioxo-1,2,3,4-tetrahydroquinoxaline-6-sulfonamide] | 100 to 1000 | 100 to 1000 | – |
| Cc1cc2[nH]c(=O)c(=O)[nH]c2cc1S(=O)(=O)Nc1ccc(-c2cccc(P(C)(C)=O)c2)c(Cl)c1 [Compound 312, N-[3-chloro-4-(3-dimethylphosphorylphenyl)phenyl]-7-methyl-2,3-dioxo-1,4-dihydroquinoxaline-6-sulfonamide] | 100 to 1000 | – | 100 to 1000 |
| O=c1[nH]c2cc(OCC(F)(F)F)c(S(=O)(=O)Nc3ccc(OC(F)(F)F)cc3)cc2[nH]c1=O [Compound 276, 2,3-dioxo-7-(2,2,2-trifluoroethoxy)-N-[4-(trifluoromethoxy)phenyl]-1,4-dihydroquinoxaline-6-sulfonamide] | < 30 | – | 30 to 100 |
| Cc1ccc(-c2ccc(NS(=O)(=O)c3cc4[nH]c(=O)c(=O)[nH]c4cc3C)cc2Cl)cc1 [Compound 38, N-(2-chloro-4′-methyl-[1,1′-biphenyl]-4-yl)-7-methyl-2,3-dioxo-1,2,3,4-tetrahydroquinoxaline-6-sulfonamide] | 100 to 1000 | 30 to 100 | – |
| Cc1cc(NS(=O)(=O)c2cc3[nH]c(=O)c(=O)[nH]c3cc2C)ccc1Br [Compound 171, N-(4-bromo-3-methylphenyl)-7-methyl-2,3-dioxo-1,2,3,4-tetrahydroquinoxaline-6-sulfonamide] | 30 to 100 | 100 to 1000 | – |
| O=c1[nH]c2cc(Cl)c(S(=O)(=O)Nc3ccc(-c4cccc(N5CCCC5)c4)c(Cl)c3)cc2[nH]c1=O [Compound 21, 7-chloro-N-(2-chloro-3′-(pyrrolidin-1-yl)-[1,1′-biphenyl]-4-yl)-2,3-dioxo-1,2,3,4-tetrahydroquinoxaline-6-sulfonamide] | 100 to 1000 | < 30 | – |
| Cc1cc(NS(=O)(=O)c2cc3[nH]c(=O)c(=O)[nH]c3cc2C)ccc1OC(F)(F)F [Compound 323, 7-methyl-N-[3-methyl-4-(trifluoromethoxy)phenyl]-2,3-dioxo-1,4-dihydroquinoxaline-6-sulfonamide] | < 30 | – | 30 to 100 |
| [2H]C([2H])([2H])c1cc2[nH]c(=O)c(=O)[nH]c2cc1S(=O)(=O)Nc1ccc(OC(F)(F)F)cc1 [Compound 217, 7-(methyl-d3)-2,3-dioxo-N-(4-(trifluoromethoxy)phenyl)-1,2,3,4-tetrahydroquinoxaline-6-sulfonamide] | < 30 | – | < 30 |
| CCCc1ccc(NS(=O)(=O)c2cc3[nH]c(=O)c(=O)[nH]c3cc2C)cc1 [Compound 49, 7-methyl-2,3-dioxo-N-(4-propylphenyl)-1,2,3,4-tetrahydroquinoxaline-6-sulfonamide] | 30 to 100 | < 30 | – |
| Cc1cc2[nH]c(=O)c(=O)[nH]c2cc1S(=O)(=O)Nc1ccc(-c2cccc(Cl)c2)c(Cl)c1 [Compound 26, N-(2,3′-dichloro-[1,1′-biphenyl]-4-yl)-7-methyl-2,3-dioxo-1,2,3,4-tetrahydroquinoxaline-6-sulfonamide] | 30 to 100 | < 30 | – |
| O=c1[nH]c2cc(F)c(S(=O)(=O)Nc3ccc(-c4cccnc4)c(Cl)c3)cc2[nH]c1=O [Compound 99, N-(3-chloro-4-(pyridin-3-yl)phenyl)-7-fluoro-2,3-dioxo-1,2,3,4-tetrahydroquinoxaline-6-sulfonamide] | 1000 to 6000 | 100 to 1000 | – |
| Cc1cc2[nH]c(=O)c(=O)[nH]c2cc1S(=O)(=O)Nc1ccc(-c2cccc(OCCN(C)C)c2)c(Cl)c1 [Compound 331, N-[3-chloro-4-[3-[2-(dimethylamino)ethoxy]phenyl]phenyl]-7-methyl-2,3-dioxo-1,4-dihydroquinoxaline-6-sulfonamide] | 100 to 1000 | – | 100 to 1000 |
| Cc1cc2[nH]c(=O)c(=O)[nH]c2cc1S(=O)(=O)Nc1ccc(-c2ccc3c(c2)NC(=O)CO3)c(C(F)(F)F)c1 [Compound 367, 7-methyl-2,3-dioxo-N-[4-(3-oxo-4H-1,4-benzoxazin-6-yl)-3-(trifluoromethyl)phenyl]-1,4-dihydroquinoxaline-6-sulfonamide] | 30 to 100 | – | < 30 |
| Cc1cc2[nH]c(=O)c(=O)[nH]c2cc1S(=O)(=O)Nc1ccc(-c2ccc(C#N)c(N(C)C)c2)c(Cl)c1 [Compound 360, N-[3-chloro-4-[4-cyano-3-(dimethylamino)phenyl]phenyl]-7-methyl-2,3-dioxo-1,4-dihydroquinoxaline-6-sulfonamide] | 100 to 1000 | – | 30 to 100 |

Source: patent US20240376084A1, “INHIBITORS OF ALPHA-HEMOLYSIN OF STAPHYLOCOCCUS AUREUS” (Helmholtz-Zentrum Fur Infektionsforschung GmbH, priority 2021, published 2024)
